The test system of test [1] is Methicillin Resistant Staphylococcus aureus strain USA 200. The experiment in a line: Minimum inhibitory concentration (MIC), CLSI broth micro-dilution, S. aureus. To be noted: Staphylococcus aureus, MRSA / USA200; Table 6; MRSA USA 200; cation adjusted Mueller Hinton Broth + 0.002% Tween-80; 35° C., 22 hours. The test is classed as cell-based. In a few lines:
(§1)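 Colonies grown 20 h at 35° C on Trypticase Soy agar (MRSA) or Luria agar (E. coli) were suspended in cation-adjusted Mueller Hinton broth with 0.002% Tween-80. Suspensions were added at OD600 0.0005 to 10-point twofold compound dilutions, then incubated 22 h at 35° C.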
(Dilution methods test growth across graded concentrations, often in twofold steps.)

Test [2] has as its system Escherichia coli ATCC 25922. The experiment in a line: Minimum inhibitory concentration (MIC), CLSI broth micro-dilution, E. coli. The test is classed as cell-based. To be noted: Escherichia coli, ATCC25922, 22 h, Table 6, cation adjusted Mueller Hinton Broth + 0.002% Tween-80, 35° C. The method, boiled down:
as §1

Turning to `CCCCCc1ccc(-c2ncc(C(=O)N[C@@H](CCNC(N)=O)C(=O)N(C)[C@@H]3C(=O)N[C@@H](C)C(=O)N[C@H](C(=O)NCC#N)Cc4ccc(OCCN)c(c4)-c4cc3ccc4OCCN)c(C)n2)cc1` (racemic) [Compound 451, rac-(8S,11S,14S)-3,18-bis(2-aminoethoxy)-N-(cyanomethyl)-11-methyl-14-[methyl-[rac-(2S)-2-[[4-methyl-2-(4-pentylphenyl)pyrimidine-5-carbonyl]amino]-4-ureido-butanoyl]amino]-10,13-dioxo-9,12-diazatricyclo[13.3.1.12,6]icosa-1(18),2(20),3,5,15(19),16-hexaene-8-carboxamide], the MIC (commonly the smallest concentration in the dilution series that meets the test's criterion for growth inhibition) in test [1] was determined as 0.047 µM; in test [2], 0.76 µM.
The corresponding values for `Cc1nc(-c2ccc(C(C)(C)C)cc2)ncc1C(=O)N[C@@H](CCNC(N)=O)C(=O)N(C)[C@@H]1C(=O)N[C@@H](C)C(=O)N[C@H](C(=O)NCC#N)Cc2ccc(OCCN)c(c2)-c2cc1ccc2OCCN` (racemic) [Compound 452, rac-(8S,11S,14S)-3,18-bis(2-aminoethoxy)-N-(cyanomethyl)-11-methyl-14-[methyl-[rac-(2S)-2-[[2-(4-tert-butylphenyl)-4-methyl-pyrimidine-5-carbonyl]amino]-4-ureido-butanoyl]amino]-10,13-dioxo-9,12-diazatricyclo[13.3.1.12,6]icosa-1(18),2(20),3,5,15(19),16-hexaene-8-carboxamide] are 0.13 µM and 1.3 µM.
As to `CCCCCCCc1ccc(C(=O)N[C@@H](CNC)C(=O)N(C)[C@@H]2C(=O)N[C@@H](C)C(=O)N[C@H](C(=O)NCC#N)Cc3ccc(OCCN)c(c3)-c3cc2ccc3OCCN)c(C)c1` (racemic) [Compound 453, rac-(8S,11S,14S)-3,18-bis(2-aminoethoxy)-N-(cyanomethyl)-11-methyl-14-[methyl-[rac-(2S)-2-[(4-heptyl-2-methyl-benzoyl)amino]-3-(methylamino)propanoyl]amino]-10,13-dioxo-9,12-diazatricyclo[13.3.1.12,6]icosa-1(18),2(20),3,5,15(19),16-hexaene-8-carboxamide], the minimal inhibitory concentration (MIC) in test [1] turned out to be 0.026 µM; in test [2] it was 1.1 µM.
On the same counts, the results for `CCCCCCCc1ccc(C(=O)N[C@@H](CS)C(=O)N(C)[C@@H]2C(=O)N[C@@H](C)C(=O)N[C@H](C(=O)NCC#N)Cc3ccc(OCCN)c(c3)-c3cc2ccc3OCCN)c(C)c1` (racemic) [Compound 454, rac-(8S,11S,14S)-3,18-bis(2-aminoethoxy)-N-(cyanomethyl)-11-methyl-14-[methyl-[rac-(2R)-2-[(4-heptyl-2-methyl-benzoyl)amino]-3-sulfanyl-propanoyl]amino]-10,13-dioxo-9,12-diazatricyclo[13.3.1.12,6]icosa-1(18),2(20),3,5,15(19),16-hexaene-8-carboxamide] are 0.55 µM and 4.4 µM.
The corresponding values for `CCCCCCCc1ccc(C(=O)N[C@H](CCN)C(=O)N(C)[C@@H]2C(=O)N[C@@H](C)C(=O)N[C@H](C(=O)NCC#N)Cc3ccc(OCCN)c(c3)-c3cc2ccc3OCCN)c(C)c1` (racemic) [Compound 456, rac-(8S,11S,14S)-3,18-bis(2-aminoethoxy)-N-(cyanomethyl)-11-methyl-14-[methyl-[rac-(2R)-4-amino-2-[(4-heptyl-2-methyl-benzoyl)amino]butanoyl]amino]-10,13-dioxo-9,12-diazatricyclo[13.3.1.12,6]icosa-1(18),2(20),3,5,15(19),16-hexaene-8-carboxamide] are 0.56 µM and 3.3 µM.
On the same counts, the results for `Cc1nc(-c2ccc(C(C)(C)C)cc2)ncc1C(=O)N[C@@H](CN)C(=O)N(C)[C@@H]1C(=O)N[C@@H](C)C(=O)N[C@H](C(=O)NCC#N)Cc2ccc(OCCN)c(c2)-c2cc1ccc2OCCN` (racemic) [Compound 457, rac-(8S,11S,14S)-3,18-bis(2-aminoethoxy)-N-(cyanomethyl)-11-methyl-14-[methyl-[rac-(2S)-3-amino-2-[[2-(4-tert-butylphenyl)-4-methyl-pyrimidine-5-carbonyl]amino]propanoyl]amino]-10,13-dioxo-9,12-diazatricyclo[13.3.1.12,6]icosa-1(18),2(20),3,5,15(19),16-hexaene-8-carboxamide] are 0.025 µM and 0.27 µM.
Take `Cc1nc(-c2ccc(CC(C)C)cc2)ncc1C(=O)N[C@@H](CCO)C(=O)N(C)[C@@H]1C(=O)N[C@@H](C)C(=O)N[C@H](C(=O)NCC#N)Cc2ccc(OCCN)c(c2)-c2cc1ccc2OCCN` (racemic) [Compound 458, rac-(8S,11S,14S)-3,18-bis(2-aminoethoxy)-N-(cyanomethyl)-11-methyl-14-[methyl-[rac-(2S)-4-hydroxy-2-[[2-(4-isobutylphenyl)-4-methyl-pyrimidine-5-carbonyl]amino]butanoyl]amino]-10,13-dioxo-9,12-diazatricyclo[13.3.1.12,6]icosa-1(18),2(20),3,5,15(19),16-hexaene-8-carboxamide]: the MIC is 0.033 µM in test [1] and 1.1 µM in test [2].
On the same counts, the results for `Cc1nc(-c2ccc(C(C)(C)C)cc2)ncc1C(=O)N[C@@H](CCO)C(=O)N(C)[C@@H]1C(=O)N[C@@H](C)C(=O)N[C@H](C(=O)NCC#N)Cc2ccc(OCCN)c(c2)-c2cc1ccc2OCCN` (racemic) [Compound 459, rac-(8S,11S,14S)-3,18-bis(2-aminoethoxy)-N-(cyanomethyl)-11-methyl-14-[methyl-[rac-(2S)-2-[[2-(4-tert-butylphenyl)-4-methyl-pyrimidine-5-carbonyl]amino]-4-hydroxy-butanoyl]amino]-10,13-dioxo-9,12-diazatricyclo[13.3.1.12,6]icosa-1(18),2(20),3,5,15(19),16-hexaene-8-carboxamide] are 0.083 µM and 0.71 µM.
On the same counts, the results for `CCCCCCc1ccc(C(=O)N2C[C@@H](CN)C[C@H]2C(=O)N(C)[C@@H]2C(=O)N[C@@H](C)C(=O)N[C@H](C(=O)NCC#N)Cc3ccc(OCCN)c(c3)-c3cc2ccc3OCCN)c(C)c1` (racemic) [Compound 461, rac-(8S,11S,14S)-3,18-bis(2-aminoethoxy)-N-(cyanomethyl)-11-methyl-14-[methyl-[rac-(2S,4R)-4-(aminomethyl)-1-(4-hexyl-2-methyl-benzoyl)pyrrolidine-2-carbonyl]amino]-10,13-dioxo-9,12-diazatricyclo[13.3.1.12,6]icosa-1(18),2(20),3,5,15(19),16-hexaene-8-carboxamide] are 0.051 µM and 1.1 µM.
As to `Cc1nc(-c2ccc(C(C)(C)C)cc2)ncc1C(=O)N[C@@H](CNC(=N)N)C(=O)N(C)[C@@H]1C(=O)N[C@@H](C)C(=O)N[C@H](C(=O)NCC#N)Cc2ccc(OCCN)c(c2)-c2cc1ccc2OCCN` (racemic) [Compound 462, rac-(8S,11S,14S)-3,18-bis(2-aminoethoxy)-N-(cyanomethyl)-11-methyl-14-[methyl-[rac-(2S)-2-[[2-(4-tert-butylphenyl)-4-methyl-pyrimidine-5-carbonyl]amino]-3-guanidino-propanoyl]amino]-10,13-dioxo-9,12-diazatricyclo[13.3.1.12,6]icosa-1(18),2(20),3,5,15(19),16-hexaene-8-carboxamide], the minimum inhibitory concentration (MIC) in test [1] amounted to 0.027 µM; in test [2] it was 5.4 µM.

The values above are taken from US20260274892A1, “MACROCYCLIC BROAD SPECTRUM ANTIBIOTICS” (RQx Pharmaceuticals, Inc., priority 2017, published 2026).
